One series can be described thus: in vitro. The following applies: mouse, plasma, pH 7.4, % remaining analogue. The protocol:
The oligomer was then diluted 1/50 with a solution of plasma/PBS pH 7.4 (1:1) to afford a final concentration of 5 µM and incubated at 37 °C (4 µL of the stock solution was diluted with 196 µL of plasma/PBS, pH 7.4, 1:1). Each compound was also incubated in the absence of plasma (196 µL of H2O/PBS, pH 7.4, 1:1). At the indicated time (20 min and 60 min) an aliquot of 70 µL was removed from each experimental reaction and pipetting into 175 µL of acetonitrile at 0 °C to quench the reaction (t = 0 min was determined using the reaction without plasma). The samples were frozen at –80 °C before analysis. The frozen samples were defrosted, stirred with a vortex 5 min and finally centrifuged 5 min at 16 °C (1500 × g). The supernatant was analysed by LC-MS. The time course of oligomer degradation was determined by integrating the area of the peak in the extracted ion chromatogram.
Supplementar y Figur e 2 : Mouse plasma degradation assay. […] Data are
mean ± SEM, n = 4. Source data are provided as a Source Data file (T able 2 tab).
Supplementar y Figur e 3.
Data are mean ± SEM, n = 3.
Source data are provided as a Source Data file […]

The next series relates to normal mice (C57BL/6J). The series is described as follows: Blood glucose study in normal fed mice. As to conditions: for effect on blood glucose concentration: normal fed C57BL/6J mice, n = 3, 5 μg per mouse (50 nmol kg−1) i.v., monitored 6 h. It is filed as in vivo, mouse. On the set-up: key to In vivo activity (indicator): + active; +++: + + + more active. As for the experimental part: In the first study, we evaluated the effect of the analogues on the blood glucose concentration of normal mice (Fig. 3). The fed mice were treated with the analogues and their blood glucose concentration was monitored before and after dosing for 6 h. […] Indeed, a decrease of blood glucose concentration is observed after 30 min and the effect is preserved for 4 h after dosing.
Fig. 3 Blood glucose study in mice. a–c Blood glucose concentration in normal mice (C57BL/6J, male, 20–25 g, n = 3) before and after dosing: 5 μg per mouse (50 nmol kg^−1) i.v. Formulation: 20 μg mL^−1 in PBS 1×. The dosing was done at T0. Data are mean ± SEM. […] Source data are provided as a Source Data file
After the acclimation period (at least 5 days), mice (male C57BL/6J mice (Charles River laboratories) 8 weeks old, 20–25 g) were randomized into 10 groups (n = 3 per group) according to their body weight. They were acutely treated via i.v. route at 10 am (5 µg per mouse). Blood glucose was measured before dosing and at 30 min, 1, 2, 4, 6 h after dosing in fed conditions.

The target in series [1] is T1, mouse GLP-1 receptor (Mus musculus, UniProt O35659).
T1 sequence (O35659 22-463): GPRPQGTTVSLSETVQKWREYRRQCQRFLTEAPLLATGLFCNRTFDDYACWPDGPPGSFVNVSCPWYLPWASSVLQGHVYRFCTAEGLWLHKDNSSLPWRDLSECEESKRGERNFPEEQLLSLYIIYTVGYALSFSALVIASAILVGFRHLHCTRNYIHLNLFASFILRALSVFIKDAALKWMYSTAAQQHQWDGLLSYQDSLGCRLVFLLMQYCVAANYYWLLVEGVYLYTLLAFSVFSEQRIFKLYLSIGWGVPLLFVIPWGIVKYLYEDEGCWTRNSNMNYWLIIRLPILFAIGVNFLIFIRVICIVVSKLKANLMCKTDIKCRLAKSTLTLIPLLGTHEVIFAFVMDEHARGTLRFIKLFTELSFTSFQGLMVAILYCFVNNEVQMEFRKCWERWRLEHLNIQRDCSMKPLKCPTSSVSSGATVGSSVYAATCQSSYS
As to conditions: for Potency (%), percentage of potency compare to GLP-1-G^2: cAMP production, from EC50. (Changes in cAMP serve as a functional read-out for many G protein-coupled receptors.)

In series [2] the target is T1, mouse GLP-1 receptor. The series can be described thus: cell-based. The following applies: for Emax: 14: experiment 1.

pEC50: −log10 of the molar value. Like-named read-outs stand apart in the source and are kept apart here. Starred links: 1 amine or outer side, 2 acyl side, 3 side chain; linkers in the order of their positions; H or OH if unused. Positions of bridges follow the written chain, without caps; N, C: chain ends. Residues, ends and D or L forms follow the SMILES beside them. Chains are numbered I, II in the order given. X4 = C[C@@H](CNC(=O)N[C@@H](C)CNC(=O)[*:2])NC(=O)NC[C@H](CCC(=O)O)N[*:1]

Consider `CC[C@H](C)[C@H](NC(=O)[C@H](Cc1ccccc1)NC(=O)[C@H](CCC(=O)O)NC(=O)[C@H](CCCCN)NC(=O)[C@H](C)NC(=O)[C@H](C)NC(=O)[C@H](CCC(N)=O)NC(=O)CNC(=O)[C@H](CCC(=O)O)NC(=O)NC[C@H](C)NC(=O)NC[C@H](Cc1ccc(O)cc1)NC(=O)NC[C@H](C)NC(=O)[C@@H](NC(=O)[C@H](CC(=O)O)NC(=O)[C@H](CO)NC(=O)[C@@H](NC(=O)[C@H](Cc1ccccc1)NC(=O)[C@@H](NC(=O)CNC(=O)[C@H](CCC(=O)O)NC(=O)CNC(=O)[C@@H](N)Cc1c[nH]cn1)[C@@H](C)O)[C@@H](C)O)C(C)C)C(=O)N[C@@H](C)C(=O)N[C@@H](Cc1c[nH]c2ccccc12)C(=O)N[C@@H](CC(C)C)C(=O)N[C@H](C(=O)N[C@@H](CCCCN)C(=O)NCC(=O)N[C@@H](CCCNC(=N)N)C(=O)NCC(N)=O)C(C)C` [compound 5, GG2[A^uY^uA^u]^11-14], for which, in the series “in vitro”, the share remaining at 20 min, 5 µM was determined as 55% and the share remaining at 1 h, 5 µM was determined as 33.6%. For the same molecule, the “In vivo activity (indicator)” value in the series on normal mice (C57BL/6J) (mice, 50 nmol kg−1 i.v.) is recorded as “+”. The “effect on blood glucose concentration” value in the series with normal mice (C57BL/6J) is on record as “showed efficacy but no improvement”. Moreover, on mouse GLP-1 receptor [1], the “LogEC50 (best-fit value)” value is given as -8.806 and the “Potency (%), percentage of potency compare to GLP-1-G^2” value (“Potency (%), percentage” below) is 15%. In addition, the pEC50 on mouse GLP-1 receptor [2] is 8.80. At mouse GLP-1 receptor [2] (read-out: Top (best-fit value), variable slope four-parameter fit, unconstrained), the Emax was determined as 89.4%.
Consider `CC[C@H](C)[C@H](NC(=O)[C@H](Cc1ccccc1)NC(=O)[C@H](CCC(=O)O)NC(=O)[C@H](CCCCN)NC(=O)[C@H](C)NC(=O)NC[C@H](C)NC(=O)NC[C@H](C)NC(=O)NC[C@H](CCC(=O)O)NC(=O)[C@H](CC(C)C)NC(=O)[C@H](Cc1ccc(O)cc1)NC(=O)[C@H](CO)NC(=O)[C@H](CO)NC(=O)[C@@H](NC(=O)[C@H](CC(=O)O)NC(=O)[C@H](CO)NC(=O)[C@@H](NC(=O)[C@H](Cc1ccccc1)NC(=O)[C@@H](NC(=O)CNC(=O)[C@H](CCC(=O)O)NC(=O)CNC(=O)[C@@H](N)Cc1c[nH]cn1)[C@@H](C)O)[C@@H](C)O)C(C)C)C(=O)N[C@@H](C)C(=O)N[C@@H](Cc1c[nH]c2ccccc12)C(=O)N[C@@H](CC(C)C)C(=O)N[C@H](C(=O)N[C@@H](CCCCN)C(=O)NCC(=O)N[C@@H](CCCNC(=N)N)C(=O)NCC(N)=O)C(C)C` [compound 11, GG2[E^uA^uA^u]^15-18] (I: H-HGEGTFTSDVSSYL / II: AKEFIAWLVKGRG-NH2; linker I:C-II:N via X4), for which, in the series “in vitro”, the share remaining at 20 min, 5 µM came to 44.7% and the share remaining at 1 h, 5 µM came out at 31.1%. In addition, on mouse GLP-1 receptor [1], the “LogEC50 (best-fit value)” value is reported as -8.721 and the “Potency (%), percentage” value came to 13%.
As for `CC[C@H](C)[C@@H](CNC(=O)N[C@@H](C)CNC(=O)N[C@@H](CC(C)C)C(=O)N[C@H](C(=O)N[C@@H](CCCCN)C(=O)NCC(=O)N[C@@H](CCCNC(=N)N)C(=O)NCC(N)=O)C(C)C)NC(=O)N[C@@H](CNC(=O)[C@H](CCC(=O)O)NC(=O)[C@H](CCCCN)NC(=O)[C@H](C)NC(=O)[C@H](C)NC(=O)[C@H](CCC(N)=O)NC(=O)CNC(=O)[C@H](CCC(=O)O)NC(=O)[C@H](CC(C)C)NC(=O)[C@H](Cc1ccc(O)cc1)NC(=O)[C@H](CO)NC(=O)[C@H](CO)NC(=O)[C@@H](NC(=O)[C@H](CC(=O)O)NC(=O)[C@H](CO)NC(=O)[C@@H](NC(=O)[C@H](Cc1ccccc1)NC(=O)[C@@H](NC(=O)CNC(=O)[C@H](CCC(=O)O)NC(=O)CNC(=O)[C@@H](N)Cc1c[nH]cn1)[C@@H](C)O)[C@@H](C)O)C(C)C)Cc1ccccc1` [compound 16, GG2[F^uαf^uA^u]^22-25], in the series “in vitro”, the share remaining at 1 h, 5 µM turned out to be 41.6%. For the same molecule, the “effect on blood glucose concentration” value with normal mice (C57BL/6J) was “showed no activity”. At mouse GLP-1 receptor [1], the “Potency (%), percentage” value turned out to be 0.4%. On mouse GLP-1 receptor [2], this molecule gave a negative-log EC50 (pEC50) of 7.21. In addition, the Emax at mouse GLP-1 receptor [2] (read-out: Top (best-fit value), fit with BOTTOM = 0%) came to 228%.

A word on the fraction remaining: it is what is left of the initial amount, in per cent. Broadly, the pEC50 is the negative decadic logarithm of the EC50, by convention in mol/L.

Source of the values: publication PMC6389962 (Nature Communications, 2019).
